Paper PMC4420865 (Journal of Cerebral Blood Flow & Metabolism, 2015)
pEC50, pKi: −log10 of the molar value.

Experiments:
[1] = Tariquidar plasma concentrations during PET scan 2; assay type: in vivo, human
[2] = target: human Pgp (Homo sapiens, UniProt P08183); experiment: Inhibition of transport of [^3H]verapamil by human Pgp; assay type: biochemical
[3] = Adverse reactions during tariquidar infusion; assay type: in vivo, human
[4] = cited from earlier work
[5] = system: Pgp at the human BBB; settings: cited from earlier work
[6] = system: Pgp at the human BBB; settings: humans, tariquidar 6 mg/kg body weight; cited from earlier work

Chain of human Pgp (P08183 whole entry, the tested form may be a part): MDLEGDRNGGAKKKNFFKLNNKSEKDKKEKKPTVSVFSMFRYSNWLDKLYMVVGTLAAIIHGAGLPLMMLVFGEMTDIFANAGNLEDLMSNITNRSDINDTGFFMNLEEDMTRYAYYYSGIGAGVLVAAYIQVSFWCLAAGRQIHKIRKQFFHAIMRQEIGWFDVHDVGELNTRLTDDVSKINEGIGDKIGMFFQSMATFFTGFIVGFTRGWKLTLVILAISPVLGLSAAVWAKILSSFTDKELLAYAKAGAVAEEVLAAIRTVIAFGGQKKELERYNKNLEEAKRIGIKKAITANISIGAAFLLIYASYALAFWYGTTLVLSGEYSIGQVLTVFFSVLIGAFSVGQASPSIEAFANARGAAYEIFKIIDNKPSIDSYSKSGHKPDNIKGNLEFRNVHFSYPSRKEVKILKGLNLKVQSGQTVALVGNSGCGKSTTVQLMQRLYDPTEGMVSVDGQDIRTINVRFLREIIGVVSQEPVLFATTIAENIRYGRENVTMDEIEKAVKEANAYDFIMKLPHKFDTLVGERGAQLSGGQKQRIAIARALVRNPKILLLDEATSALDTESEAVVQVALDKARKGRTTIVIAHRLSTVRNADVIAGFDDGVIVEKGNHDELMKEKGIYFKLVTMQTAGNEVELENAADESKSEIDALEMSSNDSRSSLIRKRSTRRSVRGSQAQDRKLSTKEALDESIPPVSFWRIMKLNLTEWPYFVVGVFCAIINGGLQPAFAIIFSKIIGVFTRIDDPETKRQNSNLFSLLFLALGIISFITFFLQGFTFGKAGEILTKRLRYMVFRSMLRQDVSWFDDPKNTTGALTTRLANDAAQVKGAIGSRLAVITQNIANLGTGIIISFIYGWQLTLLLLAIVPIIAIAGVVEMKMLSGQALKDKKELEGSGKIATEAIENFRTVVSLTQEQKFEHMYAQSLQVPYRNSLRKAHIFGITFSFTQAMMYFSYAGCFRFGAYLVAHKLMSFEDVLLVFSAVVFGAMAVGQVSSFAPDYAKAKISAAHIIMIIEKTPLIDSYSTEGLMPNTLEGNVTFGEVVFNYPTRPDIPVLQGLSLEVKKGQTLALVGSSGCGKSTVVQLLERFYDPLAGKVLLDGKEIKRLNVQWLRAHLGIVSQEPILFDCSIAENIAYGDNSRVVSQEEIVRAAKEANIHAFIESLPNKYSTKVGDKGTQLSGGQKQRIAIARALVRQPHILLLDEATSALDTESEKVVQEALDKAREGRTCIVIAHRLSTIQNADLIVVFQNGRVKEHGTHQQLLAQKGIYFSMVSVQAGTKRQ

With `COc1cc2c(cc1OC)CN(CCc1ccc(NC(=O)c3cc(OC)c(OC)cc3NC(=O)c3cnc4ccccc4c3)cc1)CC2` [tariquidar] the “Mean tariquidar plasma concentration during the PET scan” value ([1]; continuous i.v. infusion, mean dose 5.9±1.0 mg/kg, mean±s.d.) was 2,873±517 nmol/L, the “Mean tariquidar plasma concentration, times higher than in previous study” value ([1]; versus previous study ref 7) was 2–3 times and the pKi [2] was 8.07. The “Subjects with mild adverse reactions most likely related to tariquidar” value ([3]; five healthy men, mean dose 5.9±1.0 mg/kg i.v. infusion) was “four out of five subjects”, the “Dizziness, N subjects” value ([3]; of five subjects) was 1 and the “Metallic taste in the mouth, N subjects” value ([3]; of five subjects) was 3. The “Fraction of unbound tariquidar in human plasma” value [4] was 0.0063±0.0021, the “Increase in brain distribution of (R)-[^11C]verapamil” value ([5]; humans, tariquidar 6 mg/kg body weight) was 129% and the pEC50 ([5]; read-out: Previously estimated EC50 of tariquidar in humans, enhancement of brain uptake of (R)-[^11C]verapamil) was 6.06. For the same compound, the “Increase in brain distribution of [^11C]N-desmethyl-loperamide” value [6] was 223%.
